In assay [1] the test system is SNU-398. Briefly: Proliferation of hepatocellular carcinoma cell line SNU-398 (CellTiter Glo-2.0). It is filed as cell-based. Conditions: Homo sapiens, 144 h; SNU-398, cultured for 6 days, 10% FBS. The method, then:
(§1) As the human hepatocellular carcinoma cell line, SNU-398, Li-7, Hep3B2.1-7, and HuH-7 were used. In this regard, SNU-398, and Hep3B2.1-7 were obtained from American Type Culture Collection (ATCC), Li-7 was obtained from Cell Resource Center for Biomedical Research, Institute of Development, Aging and Cancer, Tohoku University, and HuH-7 was obtained from JCRB Cell Bank, respectively.
(§2) For each cell line, maintenance culture was performed by using the following medium.
(§3) An RPMI-1640 medium (Wako Pure Chemical Industries, Ltd.) containing 10% fetal bovine serum (FBS) and penicillin/streptomycin […]
(§4) The number of cells in each well after the culture was calculated by measuring the intracellular ATP level with the emission intensity using CellTiter Glo-2.0 (Promega Corporation, catalog number: G9243).
(§5) CellTiter Glo-2.0 was added in an amount of 50 μL into each well, and the mixture was mixed for 10 minutes with a plate mixer. After that, the mixture was allowed to react at room temperature for 10 minutes, and then the luminescence was measured with Multilabel Reader (ARVO X4, PerkinElmer, Inc.) The luminescence value ratio in the presence of a compound A was determined, assuming that the luminescence value in a case where Compound A had not added was set to 100% and the luminescence value in a well where cells had not been present was set to 0%. […]

Assay [2] relates to Hep3B2.1-7. Briefly: Proliferation of hepatocellular carcinoma cell line Hep3B2.1-7 (CellTiter Glo-2.0). Conditions: Homo sapiens, 144 h; Hep3B2.1-7, cultured for 6 days, 10% FBS. Type of assay: cell-based. As to the method: as §1, §2
An EMEM medium (Wako Pure Chemical Industries, Ltd.) containing 10% FBS and penicillin/streptomycin […]
as §4, §5

For assay [3], the system named is HuH-7. Briefly: Proliferation of hepatocellular carcinoma cell line HuH-7 (CellTiter Glo-2.0). To be noted: Homo sapiens, 144 h; HuH-7, cultured for 6 days, 10% FBS. Type of assay: cell-based. As to the method: as §1, §2
A DMEM-low glucose medium (Wako Pure Chemical Industries, Ltd.) containing 10% FBS and penicillin/streptomycin […]
as §4, §5

The test system of assay [4] is Li-7. Put plainly: Proliferation of hepatocellular carcinoma cell line Li-7 (CellTiter Glo-2.0). It is filed as cell-based. Conditions: Homo sapiens, 144 h; Li-7, cultured for 6 days, 10% FBS. The method, then: as §1, §2, §3, §4, §5
For assay [5], the system named is Human-derived hepatocellular carcinoma cell line HuH-7. Put plainly: Antitumor action against human hepatocellular carcinoma cell line HuH-7 transplanted subcutaneously in nude mice. Type of assay: in vivo. To be noted: HuH-7 xenograft. As to the method: (§6) Five nude mice (CAnN.Cg-Foxnlnu/CrlCrlj, female, CHARLES RIVER LABORATORIES JAPAN, INC.) were used in each group, and the antitumor effect in a case where compound A was administered was evaluated.
Human-derived hepatocellular carcinoma cell line HuH-7 (obtained from JCRB Cell Bank) cells were suspended in a DMEM medium (Wako Pure Chemical Industries, Ltd.) containing 10% bovine serum so that the concentration of the cells was 8.0×10^7 cells/mL. Into the suspension, Matrigel™ Matrix (Becton, Dickinson and Company, Japan) in the same volume as that of the suspension was added, and the obtained mixture was sufficiently mixed. The mixture in an amount of 0.1 mL was transplanted into the subcutaneous part in the right flank of each mouse, and the mouse was subjected to the antitumor effect evaluation.
On 11 days after the transplantation, the longest diameter and the short axis of the tumor were measured with an electronic digital caliper (Digimatic™ Caliper, Mitutoyo Corporation). The mice were divided into groups so that the average values of the tumor volumes in the respective groups were nearly equal to each other. In addition, the tumor volume was calculated in accordance with the following equation. Tumor volume (mm^3)=longest diameter (mm)×short axis (mm)×short axis (mm)/2
Compound A was dissolved in purified water so that the concentration of compound A was 2.5 mg/mL.
Compound A was administered to each of the mice in the respective groups at a dose of 50 mg/kg once daily for 5 days. After that, compound A was withdrawn for 2 days, and then administered orally for 3 days. In this regard, the volume to be administered was set to 20 mL/kg, and to the control group, purified water in the same volume was administered.

The test system of assay [6] is Human-derived hepatocellular carcinoma cell line Hep3B2.1-7. Put plainly: Antitumor action against human hepatocellular carcinoma cell line Hep3B2.1-7 transplanted subcutaneously in nude mice. Type of assay: in vivo. To be noted: Hep3B2.1-7 xenograft. The method, then: as §6
Human-derived hepatocellular carcinoma cell line Hep3B2.1-7 (obtained from ATCC) cells were suspended in a Hank's Balanced Salt Solution (HBSS) so that the concentration of the cells was 4×10^7 cells/mL. Into the suspension, Matrigel™ Matrix (Becton, Dickinson and Company, Japan) in the same volume as that of the suspension was added, and the obtained mixture was sufficiently mixed. The mixture in an amount of 0.1 mL was transplanted into the subcutaneous part in the right flank of each mouse, and the mouse was subjected to the antitumor effect evaluation.
On 19 days after the transplantation, the longest diameter and the short axis of the tumor were measured with an electronic digital caliper (Digimatic™ Caliper, Mitutoyo Corporation). The mice were divided into groups so that the average values of the tumor volumes in the respective groups were substantially equal to each other. In addition, the tumor volume was calculated in accordance with the following equation. Tumor volume (mm^3)=longest diameter (mm)×short axis (mm)×short axis (mm)/2
Compound A was dissolved in purified water so that the concentration of compound A was 5 mg/mL.
Compound A was administered to each of the mice in the respective groups at a dose of 100 mg/kg once daily for 5 days. After that, compound A was withdrawn for 2 days, and then administered orally for 4 days. In this regard, the volume to be administered was set to 20 mL/kg, and to the control group, purified water in the same volume was administered.

Assay [7] relates to Human-derived hepatocellular carcinoma cell line SNU-398. Briefly: Antitumor action against human hepatocellular carcinoma cell line SNU-398 transplanted subcutaneously in nude mice. It is filed as in vivo. To be noted: SNU-398 xenograft. The method, then: as §6
Human-derived hepatocellular carcinoma cell line SNU-398 (obtained from ATCC) cells were suspended in a HBSS so that the concentration of the cells was 5×10^7 cells/mL. Into the suspension, Matrigel™ Matrix (Becton, Dickinson and Company, Japan) in the same volume as that of the suspension was added, and the obtained mixture was sufficiently mixed. The mixture in an amount of 0.1 mL was transplanted into the subcutaneous part in the right flank of each mouse, and the mouse was subjected to the antitumor effect evaluation.
On 9 days after the transplantation, the longest diameter and the short axis of the tumor were measured with an electronic digital caliper (Digimatic™ Caliper, Mitutoyo Corporation). The mice were divided into groups so that the average values of the tumor volumes in the respective groups were nearly equal to each other. In addition, the tumor volume was calculated in accordance with the following equation. Tumor volume (mm^3)=longest diameter (mm)×short axis (mm)×short axis (mm)/2
Compound A was dissolved in purified water so that the concentration of compound A was […] or 2.5 mg/mL.
Compound A was administered orally to each of the mice in the respective groups at a dose of 25 mg/kg or 50 mg/kg once daily for 11 days. In this regard, the volume to be administered was set to 20 mL/kg. The control group was untreated.

The mark [8] stands for this setting: Day 0 (baseline), 50 mg/kg group.

pIC50: −log10 of the molar value.

Regarding `CNC(=O)n1ccc2cc(Oc3ccnc(NC(=O)c4ccc(C5CCN(CCO)CC5)cc4)c3)c(OCCOC)cc21` [Compound A, 5-((2-(4-(1-(2-hydroxyethyl)piperidin-4-yl)benzamide)pyridin-4-yl)oxy)-6-(2-methoxyethoxy)-N-methyl-1H-indole-1-carboxamide sesquisuccinate], the pIC50 in assay [1] is 7.59; in assay [2], 7.11; in assay [3], 6.60; in assay [4] it was 7.20. The Tumor volume in assay [5] (setting [8]) is recorded as 148.1 mm^3; in assay [5] (Day 3, 50 mg/kg once daily, oral), 409.2 mm^3; in assay [5] (Day 7, 50 mg/kg once daily for 5 days, withdrawn 2 days), 939.9 mm^3; in assay [5] (Day 10, 50 mg/kg once daily for 5 days, withdrawn 2 days, then 3 days, oral), 1400.9 mm^3; in assay [6] (Day 0 (baseline), 100 mg/kg group), 417.4 mm^3; in assay [6] (Day 3, 100 mg/kg once daily, oral) it was 504.0 mm^3. In addition, the Tumor volume in assay [6] (Day 7, 100 mg/kg once daily for 5 days, withdrawn 2 days) is 630.4 mm^3; in assay [6] (Day 11, 100 mg/kg once daily for 5 days, withdrawn 2 days, then 4 days, oral), 862.3 mm^3; in assay [7] (Day 0 (baseline), 25 mg/kg group), 154.5 mm^3; in assay [7] (setting [8]), 153.9 mm^3; in assay [7] (Day 4, 25 mg/kg once daily, oral), 516.4 mm^3; in assay [7] (Day 4, 50 mg/kg once daily, oral) it was 443.2 mm^3. The Tumor volume is listed as 942.2 mm^3 in assay [7] (Day 7, 25 mg/kg once daily, oral); 779.0 mm^3 in assay [7] (Day 7, 50 mg/kg once daily, oral); 1280.1 mm^3 in assay [7] (Day 11, 25 mg/kg once daily for 11 days, oral); 1066.1 mm^3 in assay [7] (Day 11, 50 mg/kg once daily for 11 days, oral). Also, in assay [7] (25 mg/kg or 50 mg/kg once daily for 11 days, oral), the “Increase in the tumor volume” value is given as “suppressed in a dose-dependent manner”.

The values above are taken from patent US11219619B2, “Therapeutic agent for hepatocellular carcinoma” (Eisai R&D Management Co., Ltd., priority 2018, dated 2022).
